Columns and labels:
Type in all cases: in vivo
[1] = system: melon bacterial fruit blotch; assay: control of melon bacterial fruit blotch (seed soaking); conditions: dosage 800 mg/L, after 2 weeks
Description: Melon bacterial fruit blotch: The testing compound is dissolved in a small amount of DMF and diluted with water to the desired concentration. The pathogenic bacteria in the stable growth phase is mixed with the testing solution. After melon seeds (accelerating germination) soaked in the solution containing pathogenic bacteria and compound for 0.5 hour, the seeds are sown in earthworm soil cup and then transferred into a greenhouse to allow disease to develop. After 2 weeks, The activity of the compound is evaluated based on germination or growth of control treatment

[2] = system: soft rot of chinese cabbage; assay: control of soft rot of chinese cabbage (cut leaves); conditions: dosage 400 mg/L, 48 hours
Description: Soft rot of chinese cabbage: Chinese cabbage leaves are cut into 2 cm square and placed on the double filter paper in a petri dish. The testing compound is dissolved in DMF and diluted with water to the desired concentration. The testing solution is sprayed onto the surface of the cabbage leaf and dried in a fume hood. The surface of cabbage leaf is pierced using inoculation needle. A spore suspension (5 μl) of the chinese cabbage soft rot bacteria in the stable growth phase is inoculated onto the breakage of leaves, disease development is allowed to progress in a growth cabinet under dark condition for 48 hours. The activity of the compound is evaluated based on germination or growth of control treatment.

[3] = system: bacterial leaf streak of rice (Xanthomonas oryzae pv. oryzicola); conditions: field trial; for Disease control (%) repeat I / Disease control (%) repeat II / Disease control (%) repeatIII: 400 g a.i./hm^2, a week after 3 spray applications; for Disease control (%) average: 400 g a.i./hm^2, average of repeats I-III

Compound	control against melon bacterial fruit blotch [1] [%]	control against soft rot of chinese cabbage [2] [%]	Disease control (%) repeat I [3] [%]	Disease control (%) repeat II [3] [%]	Disease control (%) repeatIII [3] [%]	Disease control (%) average [3] [%]
N#CC(C#N)=NOCc1cccc(Br)c1 [Compound 9]	100	100				
COc1ccc(CON=C(C#N)C#N)cc1 [Compound 19]		100				
N#CC(C#N)=NOCc1ccc([N+](=O)[O-])cc1 [Compound 34]		100				
N#CC(C#N)=NOCc1cccc(C#N)c1 [Compound 36]		100				
N#CC(C#N)=NOCc1ccc(C#N)cc1 [Compound 37]		100				
N#CC(C#N)=NOCc1ccc(Cl)c(Cl)c1 [Compound 59]	100	100	56.96	58.37	51.24	55.52
N#CC(C#N)=NOCc1ccc(F)c(F)c1 [Compound 83]	100	100				
thiazole zinc [reference compound]			39.21	37.24	37.88	38.11
